Assay results published in patent US11976061B2, “Preparation of benzimidazolone derivatives as novel diacylglyceride O-acyltransferase 2 inhibitors” (Merck Sharp & Dohme LLC, priority 2020, dated 2024).

Molecular target: T1, human DGAT2 (hDGAT2) (Homo sapiens, UniProt Q96PD7)
T1 construct: made in house; host or cells: Sf-9 insect cells (baculovirus), membrane fraction
T1 sequence (Q96PD7 1-388): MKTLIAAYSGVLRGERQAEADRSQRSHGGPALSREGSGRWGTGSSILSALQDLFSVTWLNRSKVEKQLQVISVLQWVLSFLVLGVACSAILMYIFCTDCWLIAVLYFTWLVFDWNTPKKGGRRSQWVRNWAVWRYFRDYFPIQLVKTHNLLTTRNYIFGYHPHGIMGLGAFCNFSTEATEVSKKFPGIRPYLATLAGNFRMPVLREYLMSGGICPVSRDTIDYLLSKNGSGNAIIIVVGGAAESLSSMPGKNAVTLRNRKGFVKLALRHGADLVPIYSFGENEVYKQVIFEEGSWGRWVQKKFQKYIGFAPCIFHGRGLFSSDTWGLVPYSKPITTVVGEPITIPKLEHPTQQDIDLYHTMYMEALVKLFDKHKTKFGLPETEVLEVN
Assay: DGAT2 Enzymatic Activity Assay
Type: biochemical
Settings: membrane prep of Sf-9 cells expressing hDGAT2; 25 μM diolein, 5 μM 13C oleoyl-CoA; 13C18-triolein by LC/MS/MS; read-out: Human DGAT2 IC50
How it was run: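 Membranes from Sf-9 cells expressing untagged human DGAT2 (8 ng/μL) incubated at rt in 100 mM Tris·Cl pH 7.0, 20 mM MgCl2, 5% ethanol with 25 μM diolein and 5 μM 13C oleoyl-CoA. 13C18-triolein product quantified by LC/MS/MS against 13C21-triolein internal standard; IC50 by 4-parameter fit.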

| SMILES | IC50 [nM] |
| --- | --- |
| CC(C)n1c(=O)n(-c2cccc(OC(F)F)c2)c2cc(Cl)c(C(=O)NC3(C)CCS(=O)(=O)CC3)cc21 [Example 127] | 112 |
| CC(C)n1c(=O)n(-c2cccc(OC(F)F)c2)c2ccc(C(=O)NC3(C)CCS(=O)(=O)CC3)c(Cl)c21 [Example 128, 4-chloro-1-(3-(difluoromethoxy)phenyl)-3-isopropyl-N-(4-methyl-1,1-dioxidotetrahydro-2H-thiopyran-4-yl)-2-oxo-2,3-dihydro-1H-benzo[d]imidazole-5-carboxamide] | 1380 |
| CC(C)n1c(=O)n(-c2cccc(OC(F)F)c2)c2ccc(C(=O)NC3(C)CCS(=O)(=O)CC3)c(C#N)c21 [Example 129, 4-cyano-1-(3-(difluoromethoxy)phenyl)-3-isopropyl-N-(4-methyl-1,1-dioxidotetrahydro-2H-thiopyran-4-yl)-2-oxo-2,3-dihydro-1H-benzo[d]imidazole-5-carboxamide] | 248 |
